Test results as given in US20130136712A1, “Malodor Control Compositions Comprising Malodor Control Polymers And Acid Catalysts And Methods Thereof” (priority 2011, published 2013).

What was measured:
[1] = Table 1, Accord A; cited from earlier work
[2] = Sulfur odor control performance of zinc polymer complexes, headspace GC/MS; conditions: spiked with 3 parts-per-million; 2 hours room temperature, 30 minutes 35° C.; Control = 1.0
Method: Butanethiol and dipropoyl sulfide were chosen as chemical surrogates for sulfur containing odors such as kitchen (onion/garlic), sewage, etc. These two molecules also enable the assessment of efficacy of polymer for sulfur molecules having different degrees of hydrophobicity (e.g more hydrophobic dipropylsulfide is usually harder to mitigate with hydrophilic technologies such as cyclodextrin).
5 ml test solution was placed in a GC-MS vial and spiked with 3 parts-per-million of butanethiol or dipropylsulfide. The solutions were first equilibrated at room temperature for 2 hours, then incubated at 35° C. for 30 minutes. The headspace of each vial was finally sampled using a PDMS/SPME fiber and analyzed by GC/MS. The reductions in head space concentrations of sulfur molecules were measured and the data were normalized to Control (Table 9).

[3] = test system: Soiled sponge samples (microbe reduction); test: Odor prevention performance, SOLARIS detection of acidic respiratory byproducts; format: cell-based; conditions: sponge treated 15 minutes, dried 12 hours; incubated 120 hrs at 37° C.
Method: The Control formulation containing no malodor control polymer or zinc salt, and Formulations containing individual polymers, zinc salts, and zinc-polymer complexes are compared for their effect on odor prevention, through microbe reduction.
Soiled sponge samples were cut into 1×6 cm strips and treated with the solutions (Table 10) for 15 minutes and dried at ambient temperature for 12 hours. The treated 1 cm strips were then cut into lx1 cm pieces, placed into SOLARIS scintillation vials, and 1 ml of MOPS buffer was added. The open vials were placed into outer SOLARIS vials containing thymolphthalein blue pH indicator and the vials were finally capped. The sealed vials were placed into a SOLARIS machine and incubated for 120 hrs at 37° C. Colorimetric measurements were conducted according to SOLARIS VIV protocol and the detection times of acidic respiratory byproducts were record (Table 10).

[4] = Malodor control performance of HMPs, headspace SPME GC/MS of spiked test solution; conditions: 5 ml test solution spiked with 5 microliters; 2 hours room temperature, 30 minutes 35° C.; Control = 1.0
Method: This example illustrates the malodor efficacy of the HMPs of the present invention. Isovaleric acid was chosen as a chemical surrogate for body odor while butylamine was used as a representative for amine-containing odors such as fish, pet urine, etc. Hydrophobic greasy cooking odors were represented by aldehydes such as nonanal.
The solutions are first equilibrated at room temperature for 2 hours, then incubated at 35° C. for 30 minutes. The headspace of each vial is finally sampled using a polydimethyl siloxane (PDMS) / Solid-Phase-Micro-Extraction (SPME) fiber and analyzed by GC/MS. The reductions in head space concentrations of odor molecules are measured and the data are normalized to Control.
Lower numbers denote high levels of malodor molecules present in the solution that are attributed to high malodor control efficacy of polymers.

[5] = benchmark for HMPs; cited from earlier work

CC(C=O)Cc1ccc(C(C)C)cc1 (stereo not drawn) [Cymal, Alpha-methyl-p-isopropyl phenyl propyl aldehyde]
VP(torr) @25° C. [1]: 0.007 torr

[Cl-].[Cl-].[Zn+2] [ZnCl2]
Butanethiol head space concentration normalized to Control [2]: 0.8
Dipropylsulfide head space concentration normalized to Control [2]: 1.0
Respiratory Byproducts Detection Time [3]: 3.38 h
Butylamine (Fish) head space concentration normalized to Control [4]: 0.0
Isovaleric Acid (Body) head space concentration normalized to Control [4]: 1.0
Nonanal (Grease) head space concentration normalized to Control [4]: 1.0

COc1ccccc1C=O [o-anisaldehyde]
VP(torr) @25° C. [1]: 0.032 torr

hydroxypropyl modified beta cyclodextrin
ambient temperature water solubility (benchmark) [5]: ≥ 60 g/100 ml

C=CCCCCCCCCC=O [Intreleven Aldehyde, undec-10-en-1-al]
VP(torr) @25° C. [1]: 0.060 torr

C=CC(C)CCC=C(C)CCC=O (stereo not shown) [Floral Super]
VP(torr) @25° C. [1]: 0.030 torr

COC1CC2CC1C1CC(C=O)CC21 (stereo not shown) [Scentenal, octahydro-5-methoxy-4,7-Methano-1H-indene-2-carboxaldehyde]
VP(torr) @25° C. [1]: 0.010 torr

CC(C)c1cccc(C(C)CC=O)c1 (stereo not shown) [Florhydral, 3-(3-Isopropyl-phenyl)-butyraldehyde]
VP(torr) @25° C. [1]: 0.008 torr
